Measured values published in ChEMBL document CHEMBL1201862, “PubChem BioAssay data set” (2004).
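Exposure lasted 48 hours, with cells grown in 96-well plates and compounds tested at five concentrations. At the GI50, growth is halved.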 Active and inactive are the calls of the source. Rule as the data show it: active = GI50 up to about 1.1 µM and inactive = higher.

Experiments:
Experiment in all cases: NCI tumour cell line growth inhibition, 48 h
DMS-114 = system: DMS-114
DMS-273 = system: DMS-273
HOP-18 = system: HOP-18
KM-20L2 = system: KM-20L2
LXFL 529 = system: LXFL 529
RXF 631 = system: RXF 631
SNB-78 = system: SNB-78
XF498 = system: XF498
DLD-1 = system: DLD-1

SMILES | GI50 (DMS-114) | GI50 (DMS-273) | GI50 (HOP-18) | GI50 (KM-20L2) | GI50 (LXFL 529) | GI50 (RXF 631) | GI50 (SNB-78) | GI50 (XF498) | GI50 (DLD-1)
COC(=O)C(=O)C(C(=O)C(=O)Nc1ccccc1C(N)=O)c1nc2ccc(C(=O)c3ccccc3)cc2nc1O (configuration not stated) | > 100 µM (inactive) | 62.8 µM (inactive) | 37.1 µM (inactive) | > 100 µM (inactive) | 44.6 µM (inactive) | > 100 µM (inactive) | 68.7 µM (inactive) | > 100 µM (inactive) | 
O=C(O)[C@H](NS(=O)(=O)c1ccc([N+](=O)[O-])cc1)c1ccccc1 | > 100 µM (inactive) | > 100 µM (inactive) | > 100 µM (inactive) | > 100 µM (inactive) | > 100 µM (inactive) | > 100 µM (inactive) | > 100 µM (inactive) | > 100 µM (inactive) | > 100 µM (inactive)
O=C(CCC(=O)Nc1ccc(Cl)c(Cl)c1)Cc1nc2ccccc2o1 | > 100 µM (inactive) | > 100 µM (inactive) | > 100 µM (inactive) | > 100 µM (inactive) | > 100 µM (inactive) | > 100 µM (inactive) | > 100 µM (inactive) |  | 
[O-][N+]1=C(c2ccccc2)COc2ccccc21 | > 100 µM (inactive) | > 100 µM (inactive) | > 100 µM (inactive) | > 100 µM (inactive) | > 100 µM (inactive) | 70.1 µM (inactive) | > 100 µM (inactive) |  | > 100 µM (inactive)
COC(=O)C(C(=O)C(=O)Nc1ccc(C)cc1C)c1csc(-n2nc(-c3ccccc3)cc2-c2ccccc2)n1 (configuration not stated) | 23.8 µM (inactive) | > 100 µM (inactive) | 40.4 µM (inactive) | 57.5 µM (inactive) | > 100 µM (inactive) | > 100 µM (inactive) | > 100 µM (inactive) | > 100 µM (inactive) | > 100 µM (inactive)
COc1cc(C(Cc2ccccc2)NC(C)=O)oc(=O)c1 (configuration not stated) | > 100 µM (inactive) | > 100 µM (inactive) |  | > 100 µM (inactive) | > 100 µM (inactive) |  |  | > 100 µM (inactive) | > 100 µM (inactive)
COc1cc2c(cc1O)CCN[C@@]21CS[C@H]2c3c(OC(C)=O)c(C)c4c(c3C(COC1=O)N1C2C2NC(Cc3cc(C)c(OC)c(O)c32)[C@@H]1C#N)OCO4 (some centres not stated) | < 0.01 µM (active) | < 0.01 µM (active) |  | < 0.01 µM (active) | < 0.01 µM (active) | < 0.01 µM (active) |  | < 0.01 µM (active) | < 0.01 µM (active)
CC(C)N(C(=O)C12C3C4C5C3C1(C(=O)N(C(C)C)C(C)C)C5(C#N)C42)C(C)C (configuration not stated) | > 100 µM (inactive) | 45.8 µM (inactive) | > 100 µM (inactive) | > 100 µM (inactive) | > 100 µM (inactive) | > 100 µM (inactive) | > 100 µM (inactive) | > 100 µM (inactive) | 27.1 µM (inactive)
O=C1C(c2ccc([N+](=O)[O-])cc2)=[N+]([O-])c2ccc([N+](=O)[O-])cc21 | 30.1 µM (inactive) | 69.7 µM (inactive) | 54.8 µM (inactive) |  | 28.4 µM (inactive) | 35.6 µM (inactive) | 79.8 µM (inactive) |  | 33.4 µM (inactive)
CC(C)(C)OC(=O)NC1CCCC1=O (configuration not stated) |  | > 100 µM (inactive) |  | > 100 µM (inactive) | > 100 µM (inactive) | > 100 µM (inactive) | > 100 µM (inactive) | > 100 µM (inactive) | > 100 µM (inactive)
CNC1=C(C)C(=O)C(C)=C(C(C)(C)CC(=O)n2cc(F)c(=O)[nH]c2=O)C1=O | 74.6 µM (inactive) | 23.1 µM (inactive) | > 100 µM (inactive) | 31.3 µM (inactive) | > 89.1 µM (inactive) | 23.4 µM (inactive) | > 100 µM (inactive) | 97.7 µM (inactive) | 12.8 µM (inactive)
C=C1CCC2C(C)(CO)C(O)CCC2(C)C1CC(O)C1=CCOC1=O (configuration not stated) | 41.8 µM (inactive) | > 100 µM (inactive) | 54.7 µM (inactive) | 47.4 µM (inactive) | 27 µM (inactive) | 30.5 µM (inactive) |  |  | 86.3 µM (inactive)
O=C1COc2cc3c(cc2N1)SCC(=O)N3 | > 100 µM (inactive) | > 100 µM (inactive) | > 100 µM (inactive) |  | > 100 µM (inactive) | > 100 µM (inactive) | > 100 µM (inactive) | > 100 µM (inactive) | > 100 µM (inactive)
COc1ccc(C2C(C(=O)O)=C(COC(C)=O)Oc3cc4c(cc32)OCO4)c(OC)c1 (configuration not stated) | > 100 µM (inactive) | > 100 µM (inactive) | > 100 µM (inactive) | > 100 µM (inactive) |  | > 100 µM (inactive) | > 100 µM (inactive) | > 100 µM (inactive) | > 100 µM (inactive)
Nc1ccc(C(=O)CC2(O)C(=O)Nc3c(Cl)cc(Cl)cc32)cc1 (configuration not stated) |  |  | 90.6 µM (inactive) | > 100 µM (inactive) | 37.8 µM (inactive) | 28.8 µM (inactive) |  |  | 42.9 µM (inactive)
COC(=O)/C([Se]c1c(C)cc(C)cc1C)=C(\[Se]c1c(C)cc(C)cc1C)C(=O)OC | > 100 µM (inactive) | > 100 µM (inactive) | > 100 µM (inactive) | > 100 µM (inactive) | > 100 µM (inactive) | > 100 µM (inactive) | > 100 µM (inactive) |  | > 100 µM (inactive)
COc1cccc2c1c1ccc3c(c1n2C)C(=O)C=CC3=O | 20 µM (inactive) | 16 µM (inactive) | 14.1 µM (inactive) | 63.4 µM (inactive) | 12 µM (inactive) |  | 18.7 µM (inactive) | 15.8 µM (inactive) | 16.4 µM (inactive)
Cc1ccc2nc(NC(=O)/C(=N\NC(=S)NN)C3C(=O)NC(=S)NC3=O)sc2c1 |  | > 100 µM (inactive) | 80 µM (inactive) | > 100 µM (inactive) | > 100 µM (inactive) | > 100 µM (inactive) | > 100 µM (inactive) | > 100 µM (inactive) | > 100 µM (inactive)
C/N=C(\N)c1ccc(NC(=N)c2ccc(C(=N)Nc3ccc(/C(N)=N/C)cc3)cc2)cc1 | > 100 µM (inactive) | > 100 µM (inactive) |  |  | > 100 µM (inactive) | > 100 µM (inactive) |  |  | 
COc1ccc([Se][Se]c2ccc(OC)cc2OC)c(OC)c1 | 2.01 µM (inactive) | 5.12 µM (inactive) | 1.97 µM (inactive) |  | 2.1 µM (inactive) | 6.31 µM (inactive) | 2.66 µM (inactive) | 1.94 µM (inactive) | 3.3 µM (inactive)
CCN(CCCl)CCCCNc1c2ccccc2nc2ccc(OC)cc12 | 0.323 µM (active) | 0.0865 µM (active) |  | 0.238 µM (active) | 0.0923 µM (active) | 0.553 µM (active) | 0.527 µM (active) |  | 0.0891 µM (active)
